Test results reported in ChEMBL document CHEMBL3885881, “DrugMatrix”.

Organism: Rattus norvegicus
Assay: DrugMatrix - Regimen: Daily Repeat
Format: toxicity, organism-based, Sprague-Dawley
Parameters: regimen Daily Repeat, gender Male, age 6-8 weeks
Details: in vivo, po, route oral GAVAGE, […]; for ABSOLUTE BASOPHIL / ABSOLUTE EOSINOPHIL / ABSOLUTE LYMPHOCYTE / ABSOLUTE MONOCYTE / ABSOLUTE SEGMENTED NEUTROPHIL / BASOPHIL / EOSINOPHIL / ERYTHROCYTE COUNT / HEMATOCRIT / HEMOGLOBIN / LEUKOCYTE COUNT / LYMPHOCYTE / MEAN CORPUSCULAR HEMOGLOBIN / MEAN CORPUSCULAR VOLUME / MONOCYTE / NEUTROPHIL / NUCLEATED RED BLOOD CELLS / PLATELET COUNT: tissue Blood; for ALANINE AMINOTRANSFERASE / ALBUMIN / ALKALINE PHOSPHATASE / ASPARTATE AMINOTRANSFERASE / BLOOD UREA NITROGEN / CARBON DIOXIDE / CHLORIDE / CHOLESTEROL / CREATINE PHOSPHOKINASE / CREATININE / GLUCOSE / LACTATE DEHYDROGENASE / LIPASE / PHOSPHORUS / POTASSIUM / SODIUM / TOTAL BILIRUBIN / TOTAL PROTEIN / URIC ACID: tissue Plasma
[1] = 70 mg/kg, 120 h, dose level M1, time 5 day
[2] = 700 mg/kg, 72 h, dose level High, time 3 day
[3] = 700 mg/kg, 120 h, dose level High, time 5 day

CCCCCCCCc1ccc(O)cc1 [4-OCTYLPHENOL]
ABSOLUTE BASOPHIL [1]: 0 CELLS/uL | ABSOLUTE EOSINOPHIL [1]: 194 CELLS/uL | ABSOLUTE LYMPHOCYTE [1]: 9540.33 CELLS/uL | ABSOLUTE MONOCYTE [1]: 80.33 CELLS/uL | ABSOLUTE SEGMENTED NEUTROPHIL [1]: 918.67 CELLS/uL | BASOPHIL [1]: 0% | EOSINOPHIL [1]: 1.67% | ERYTHROCYTE COUNT [1]: 5.98 x10E6/uL | HEMATOCRIT [1]: 36.37% | HEMOGLOBIN [1]: 13.77 G/DL | LEUKOCYTE COUNT [1]: 10.73 x10E3/uL | LYMPHOCYTE [1]: 88.67% | MEAN CORPUSCULAR HEMOGLOBIN [1]: 23.03 pg | MEAN CORPUSCULAR VOLUME [1]: 60.9 fL | MONOCYTE [1]: 0.67% | NEUTROPHIL [1]: 9% | NUCLEATED RED BLOOD CELLS [1]: 0.33 /100WBC | PLATELET COUNT [1]: 1062 x10E3/uL | ALANINE AMINOTRANSFERASE [1]: 72 u/L | ALBUMIN [1]: 4.1 G/DL | ALKALINE PHOSPHATASE [1]: 380.67 u/L | ASPARTATE AMINOTRANSFERASE [1]: 88.67 u/L | BLOOD UREA NITROGEN [1]: 16.67 mg/dL | CARBON DIOXIDE [1]: 27 mmol/L | CHLORIDE [1]: 102.33 MEQ/L | CHOLESTEROL [1]: 57.67 mg/dL | CREATINE PHOSPHOKINASE [1]: 355.33 u/L | CREATININE [1]: 0.18 mg/dL | GLUCOSE [1]: 157.33 mg/dL | LACTATE DEHYDROGENASE [1]: 260.67 u/L | LIPASE [1]: 11.67 u/L | PHOSPHORUS [1]: 11.13 mg/dL | POTASSIUM [1]: 5.91 MEQ/L | SODIUM [1]: 142.87 MEQ/L | TOTAL BILIRUBIN [1]: 0.17 mg/dL | TOTAL PROTEIN [1]: 5.87 G/DL | URIC ACID [1]: 1.6 mg/dL | ABSOLUTE BASOPHIL [2]: 0 CELLS/uL | ABSOLUTE EOSINOPHIL [2]: 0 CELLS/uL | ABSOLUTE LYMPHOCYTE [2]: 8011 CELLS/uL | ABSOLUTE MONOCYTE [2]: 200 CELLS/uL | ABSOLUTE SEGMENTED NEUTROPHIL [2]: 2522.33 CELLS/uL | BASOPHIL [2]: 0% | EOSINOPHIL [2]: 0% | ERYTHROCYTE COUNT [2]: 6.31 x10E6/uL | HEMATOCRIT [2]: 38.63% | HEMOGLOBIN [2]: 14.83 G/DL | LEUKOCYTE COUNT [2]: 10.73 x10E3/uL | LYMPHOCYTE [2]: 73.33% | MEAN CORPUSCULAR HEMOGLOBIN [2]: 23.5 pg | MEAN CORPUSCULAR VOLUME [2]: 61.27 fL | MONOCYTE [2]: 2% | NEUTROPHIL [2]: 24.67% | NUCLEATED RED BLOOD CELLS [2]: 0.67 /100WBC | PLATELET COUNT [2]: 1294.33 x10E3/uL | ALANINE AMINOTRANSFERASE [2]: 165.67 u/L | ALBUMIN [2]: 3.93 G/DL | ALKALINE PHOSPHATASE [2]: 493 u/L | ASPARTATE AMINOTRANSFERASE [2]: 140.33 u/L | BLOOD UREA NITROGEN [2]: 33.33 mg/dL | CARBON DIOXIDE [2]: 26.67 mmol/L | CHLORIDE [2]: 97.67 MEQ/L | CHOLESTEROL [2]: 169.67 mg/dL | CREATINE PHOSPHOKINASE [2]: 748 u/L | CREATININE [2]: 0.58 mg/dL | GLUCOSE [2]: 147.33 mg/dL | LACTATE DEHYDROGENASE [2]: 302.33 u/L | LIPASE [2]: 10.33 u/L | PHOSPHORUS [2]: 12.5 mg/dL | POTASSIUM [2]: 5.29 MEQ/L | SODIUM [2]: 140.03 MEQ/L | TOTAL BILIRUBIN [2]: 0.9 mg/dL | TOTAL PROTEIN [2]: 6.17 G/DL | URIC ACID [2]: 1.03 mg/dL | ABSOLUTE BASOPHIL [3]: 0 CELLS/uL | ABSOLUTE EOSINOPHIL [3]: 0 CELLS/uL | ABSOLUTE LYMPHOCYTE [3]: 7185 CELLS/uL | ABSOLUTE MONOCYTE [3]: 222.33 CELLS/uL | ABSOLUTE SEGMENTED NEUTROPHIL [3]: 759.33 CELLS/uL | BASOPHIL [3]: 0% | EOSINOPHIL [3]: 0% | ERYTHROCYTE COUNT [3]: 7.06 x10E6/uL | HEMATOCRIT [3]: 42.33% | HEMOGLOBIN [3]: 15.83 G/DL | LEUKOCYTE COUNT [3]: 8.17 x10E3/uL | LYMPHOCYTE [3]: 85% | MEAN CORPUSCULAR HEMOGLOBIN [3]: 22.53 pg | MEAN CORPUSCULAR VOLUME [3]: 60.13 fL | MONOCYTE [3]: 3.33% | NEUTROPHIL [3]: 11.67% | NUCLEATED RED BLOOD CELLS [3]: 0 /100WBC | PLATELET COUNT [3]: 1069.33 x10E3/uL | ALANINE AMINOTRANSFERASE [3]: 175.67 u/L | ALBUMIN [3]: 4.03 G/DL | ALKALINE PHOSPHATASE [3]: 554.67 u/L | ASPARTATE AMINOTRANSFERASE [3]: 104 u/L | BLOOD UREA NITROGEN [3]: 17 mg/dL | CARBON DIOXIDE [3]: 27.67 mmol/L | CHLORIDE [3]: 100 MEQ/L | CHOLESTEROL [3]: 150.33 mg/dL | CREATINE PHOSPHOKINASE [3]: 369 u/L | CREATININE [3]: 0.37 mg/dL | GLUCOSE [3]: 133 mg/dL | LACTATE DEHYDROGENASE [3]: 179.33 u/L | LIPASE [3]: 10.67 u/L | PHOSPHORUS [3]: 11.13 mg/dL | POTASSIUM [3]: 6.27 MEQ/L | SODIUM [3]: 143.2 MEQ/L | TOTAL BILIRUBIN [3]: 0.3 mg/dL | TOTAL PROTEIN [3]: 6.37 G/DL | URIC ACID [3]: 1.23 mg/dL
